Measurements reported in US8569336B2, “Compounds for the treatment of inflammatory disorders” (priority 2008, dated 2013).
pIC50, pKi: −log10 of the molar value. Read-outs that look alike come from different tables or passages of the source.

Key:
[1] = target: T1, purified catalytic domain of recombinant human TACE (rhTACEc) (Homo sapiens, UniProt P78536, N452Q/S266A); assay: TACE kinetic assay: cleavage of internally quenched peptide substrate TNF-FRET 2 (Ki); format: biochemical; conditions: TNF-FRET 2 substrate
T1 construct: 6xHis (C); made in house; host or cells: baculovirus/Hi5 insect cells
T1 sequence (P78536 215-477 S266A/N452Q): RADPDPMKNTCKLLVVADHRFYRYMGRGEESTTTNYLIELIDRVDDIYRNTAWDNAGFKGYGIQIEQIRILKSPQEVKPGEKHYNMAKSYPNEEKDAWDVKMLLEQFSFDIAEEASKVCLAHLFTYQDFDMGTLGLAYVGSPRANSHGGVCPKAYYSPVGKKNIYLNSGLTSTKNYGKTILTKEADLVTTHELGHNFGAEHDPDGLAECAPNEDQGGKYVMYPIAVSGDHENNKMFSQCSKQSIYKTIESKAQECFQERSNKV

[2] = Area under the curve determinations of plasma levels in rats (rrAUC), oral 10 mg/kg; format: in vivo; conditions: for AUC: rat, read-out: RR AUC (rapid rat AUC, rrAUC)
[3] = system: TNF-α production from human whole blood; assay: Inhibition of TNF-α production from human whole blood (hWBA), LPS stimulated, ELISA; format: cell-based; conditions: Homo sapiens, TNF-α by ELISA, read-out: hWBA (IC50)
[4] = 3.5 h, human whole blood diluted 1:1, LPS stimulated, 3.5 h
[5] = LPS-stimulated human whole blood
[6] = plasma, blood collected 0.5-6 h post-dosing
[7] = human whole blood diluted 1:1, LPS stimulated

Structure (SMILES)	pKi ([1]; read-out: Ki)	AUC ([2]; plasma 0.5-6 h post-dosing) [µM·h]	pIC50 [3, 4]	other results
COc1ccc2c(c1)C(=O)N(C[C@@]1(c3cc4nc(-c5cccnc5)ccc4o3)NC(=O)NC1=O)C2 [Compound 2107]	9.04	3.08	6.77	–
COc1ccc2c(c1)C(=O)N(C[C@@]1(c3cc4nc(N5CCC[C@H]5CO)ccc4o3)NC(=O)NC1=O)C2 [Compound 1513]	9.15	–	–	AUC ([2]; plasma 0.5-6 h): 0.524 µM·h; pIC50 [3, 5]: 6.28
COc1ccc2c(c1)C(=O)N(C[C@@]1(c3cc4c(OC)nccc4o3)NC(=O)NC1=O)C2 [Compound 2307]	9.36	–	–	AUC [2, 6]: 41.4 µM·h; pIC50 [3, 7]: 6.22
CNC(=O)Nc1ccc2oc([C@]3(CN4Cc5ccc(OC)cc5C4=O)NC(=O)NC3=O)cc2c1 [Compound 2227]	9.32	0.057	6.27	–
COc1ccc2c(c1F)C(=O)N(C[C@@]1(c3cc4c5c(ccc4o3)C(=O)NC5)NC(=O)NC1=O)C2 [Compound 2506]	9.49	–	–	AUC [2, 6]: 0.437 µM·h; pIC50 [3, 7]: 6.81
COc1ccc2c(c1)C(=O)N(C[C@@]1(c3cc4nc(Nc5ccnn5C)ccc4o3)NC(=O)NC1=O)C2 [Compound 2131]	9.38	0.257	6.20	–
COc1ccc2c(c1)C(=O)N(C[C@@]1(c3cc4nc(-c5cnn(CC(C)C)c5)ccc4o3)NC(=O)NC1=O)C2 [Compound 2115]	9.71	0.349	6.01	–
COc1ccc2c(c1)C(=O)N(C[C@@]1(c3cc4cc(C5(C)NC(=O)NC5=O)c(F)cc4o3)NC(=O)NC1=O)C2 (stereo partly drawn) [Compound 2200]	8.73	0.177	6.66	–
CCCn1cc(-c2ccc3oc([C@]4(CN5Cc6ccc(OC)cc6C5=O)NC(=O)NC4=O)cc3n2)cn1 [Compound 2117]	9.39	0.32	5.99	–
COc1ccc2c(c1)C(=O)N(C[C@@]1(c3cc4nc(-c5c(C)nn(C)c5C)ccc4o3)NC(=O)NC1=O)C2 [Compound 2105]	9.81	7.54	6.67	–
COc1ccc2c(c1)C(=O)N(C[C@@]1(c3cc4cc(-c5cccnc5)ncc4o3)NC(=O)NC1=O)C2 [Compound 2239]	9.17	9.84	6.14	–
COc1ccc2c(c1)C(=O)N(C[C@@]1(c3cc4cc(C5(C)NC(=O)NC5=O)cnc4o3)NC(=O)NC1=O)C2 (stereo partly drawn) [Compound 500]	9.16	–	–	AUC ([2]; plasma 0.5-6 h): 1.1 µM·h; pIC50 [3, 5]: 6.79
COc1ccc2c(c1)C(=O)N(C[C@@]1(c3cc4ccc(NC(C)=O)nc4o3)NC(=O)NC1=O)C2 [Compound 2249]	9.19	0.974	6.75	–
COc1ccc2c(c1)C(=O)N(C[C@@]1(c3cc4nc(-c5cn[nH]c5)ccc4o3)NC(=O)NC1=O)C2 [Compound 2100]	9.71	0.104	7.00	–
COc1ccc2c(c1)C(=O)N(C[C@@]1(c3cc4c(N5CCCC5=O)nccc4o3)NC(=O)NC1=O)C2 [Compound 2293]	8.90	–	–	AUC [2, 6]: 0.219 µM·h; pIC50 [3, 7]: 6.28
COc1ccc2c(c1)C(=O)N(C[C@@]1(c3cc4nc(NC5CC5)ccc4o3)NC(=O)NC1=O)C2 [Compound 2148]	9.75	9.34	6.20	–
COc1ccc2c(c1)C(=O)N(C[C@@]1(c3cc4ccccc4o3)NC(=O)NC1=O)C2 [Compound 2214]	9.56	0.195	5.64	–
COc1ccc2c(c1)C(=O)N(C[C@@]1(c3cc4cnc(-c5ccncc5)cc4o3)NC(=O)NC1=O)C2 [Compound 2231]	–	2.75	5.85	pKi ([1]; Ki): 9.27
COc1ccc2c(c1F)C(=O)N(C[C@@]1(c3cc4nc(N5C[C@H](O)CC5=O)ccc4o3)NC(=O)NC1=O)C2 [Compound 1511]	9.40	–	–	AUC ([2]; plasma 0.5-6 h): 4.01 µM·h; pIC50 [3, 5]: 7.03
COc1ccc2c(c1F)C(=O)N(C[C@@]1(c3cc4nc(-n5cccn5)ccc4o3)NC(=O)NC1=O)C2 [Compound 1524]	9.52	–	–	AUC ([2]; plasma 0.5-6 h): 8 µM·h; pIC50 [3, 5]: 6.25
COc1ccc2c(c1Cl)C(=O)N(C[C@@]1(c3cc4ncccc4o3)NC(=O)NC1=O)C2 [Compound 2153]	8.96	1.76	5.58	–
COc1ccc2c(c1F)C(=O)N(C[C@@]1(c3cc4nc(N5CCCNC5=O)ccc4o3)NC(=O)NC1=O)C2 [Compound 2146]	9.01	0.522	6.30	–
COc1ccc2c(c1)C(=O)N(C[C@@]1(c3cc4cnc(Cl)cc4o3)NC(=O)NC1=O)C2 [Compound 2285]	9.36	–	–	AUC [2, 6]: 22.2 µM·h; pIC50 [3, 7]: 6.43
COc1ccc2c(c1)C(=O)N(C[C@@]1(c3cc4ccc(N)nc4o3)NC(=O)NC1=O)C2 [Compound 2250]	9.36	0.391	6.66	–

Structure (SMILES)	pKi ([1]; read-out: Ki)	AUC ([2]; plasma 0.5-6 h post-dosing) [µM·h]	pIC50 [3, 4]	other results
COc1ccc2c(c1)C(=O)N(C[C@@]1(c3cc4cc(-c5ccnc(N)n5)ccc4o3)NC(=O)NC1=O)C2 [Compound 2245]	9.34	6.03	5.98	–
COc1ccc2c(c1F)C(=O)N(C[C@@]1(c3cc4nc(N5CCN(C(C)C)CC5)ccc4o3)NC(=O)NC1=O)C2 [Compound 1706]	9.30	–	–	AUC ([2]; plasma 0.5-6 h): 0.273 µM·h; pIC50 [3, 5]: 6.65
COc1ccc2c(c1F)C(=O)N(C[C@@]1(c3cc4nc(-c5c(C)nn(C)c5C)ccc4o3)NC(=O)NC1=O)C2 [Compound 2119]	9.41	7	6.61	–
COc1ccc2c(c1)C(=O)N(C[C@@]1(c3cc4cnc(C(F)(F)F)cc4o3)NC(=O)NC1=O)C2 [Compound 2269]	–	19.3	5.79	pKi ([1]; Ki): 9.30
COc1ccc2c(c1)C(=O)N(C[C@@]1(c3cc4cc(NC(C)=O)cnc4o3)NC(=O)NC1=O)C2 [Compound 2295]	8.88	–	–	AUC [2, 6]: 0.044 µM·h; pIC50 [3, 7]: 6.65
COc1ccc2c(c1)C(=O)N(C[C@@]1(c3cc4c(o3)CCN(C)C4)NC(=O)NC1=O)C2 [Compound 2263]	8.11	0.24	≤ 6.00	–
COc1ccc2c(c1)C(=O)N(C[C@@]1(c3cc4c(C(C)O)nccc4o3)NC(=O)NC1=O)C2 (stereo partly drawn) [Compound 2294]	9.26	–	–	AUC [2, 6]: 0.154 µM·h; pIC50 [3, 7]: 6.49
COc1ccc2c(c1F)C(=O)N(C[C@@]1(c3cc4cc(F)cnc4o3)NC(=O)NC1=O)C2 [Compound 2277]	–	26.2	6.30	pKi ([1]; Ki): 9.30
COc1ccc2c(c1)C(=O)N(C[C@@]1(c3cc4cc(-c5cccnc5)cnc4o3)NC(=O)NC1=O)C2 [Compound 2254]	9.22	1.77	5.78	–
COc1ccc2c(c1)C(=O)N(C[C@@]1(c3cc4cc(C(=NO)N5CCN(C6CC6)CC5)ccc4o3)NC(=O)NC1=O)C2 [Compound 2455]	9.24	–	–	AUC [2, 6]: 0.013 µM·h; pIC50 [3, 7]: 6.05
COc1ccc2c(c1F)C(=O)N(C[C@@]1(c3cc4cc5c(c(F)c4o3)C(=O)NC5)NC(=O)NC1=O)C2 [Compound 2499]	9.48	–	–	AUC [2, 6]: 1.08 µM·h; pIC50 [3, 7]: 7.14
COc1ccc2c(c1)C(=O)N(C[C@@]1(c3cc4nc(-c5ccc(C#N)nc5)ccc4o3)NC(=O)NC1=O)C2 [Compound 1530]	9.15	–	–	RR AUC (rapid rat AUC, rrAUC) ([2]; plasma 0.5-6 h): 0.536 µM·h; pIC50 [3, 5]: 5.79
COc1ccc2c(c1)C(=O)N(C[C@@]1(c3cc4cc(-c5cc[nH]n5)ccc4o3)NC(=O)NC1=O)C2 [Compound 2219]	9.17	1.02	5.86	–
COc1ccc2c(c1F)C(=O)N(C[C@@]1(c3cc4cc5c(c(F)c4o3)C(=O)N(C)C5)NC(=O)NC1=O)C2 [Compound 2502]	9.16	–	–	AUC [2, 6]: 3.12 µM·h; pIC50 [3, 7]: 6.42
COc1ccc2c(c1)C(=O)N(C[C@@]1(c3cc4cc(C5(C(N)=O)CC5)ccc4o3)NC(=O)NC1=O)C2 [Compound 2421]	9.42	–	–	AUC [2, 6]: 0.037 µM·h; pIC50 [3, 7]: 6.05
COc1ccc2c(c1)C(=O)N(C[C@@]1(c3cc4c(o3)CN(C)CC4)NC(=O)NC1=O)C2 [Compound 2264]	9.38	0.623	5.93	–
COc1ccc2c(c1)C(=O)N(C[C@@]1(c3cc4nc(N)ccc4o3)NC(=O)NC1=O)C2 [Compound 2314]	–	–	–	pKi ([1]; Ki): 9.29; RR AUC (rapid rat AUC, rrAUC) ([2]; blood collected 0.5-6 h post-dosing): 0.424 µM·h; pIC50 [3, 7]: 6.73
COc1ccc2c(c1)C(=O)N(C[C@@]1(c3cc4nc(-c5ccc(N)nc5)ccc4o3)NC(=O)NC1=O)C2 [Compound 2102]	–	0.092	6.79	pKi ([1]; Ki): 9.48
COc1ccc2c(c1)C(=O)N(C[C@@]1(c3cc4cc(C(=O)N5CCN(C)CC5)ccc4o3)NC(=O)NC1=O)C2 [Compound 2426]	–	–	–	pKi ([1]; Ki): 8.90; AUC [2, 6]: 0.057 µM·h; pIC50 [3, 7]: 6.07
COc1ccc2c(c1F)C(=O)N(C[C@@]1(c3cc4nc(Nc5cncc(F)c5)ccc4o3)NC(=O)NC1=O)C2 [Compound 1733]	9.15	–	–	AUC ([2]; plasma 0.5-6 h): 0.904 µM·h; pIC50 [3, 5]: 6.34
COc1ccc2c(c1)C(=O)N(C[C@@]1(c3cc4cc(-c5cccnc5)ccc4o3)NC(=O)NC1=O)C2 [Compound 2195]	–	1.16	5.67	pKi ([1]; Ki): 9.02
COc1ccc2c(c1)C(=O)N(C[C@@]1(c3cc4nc(N5CCN(C)CC5)ccc4o3)NC(=O)NC1=O)C2 [Compound 2108]	–	0.43	6.82	pKi ([1]; Ki): 9.21
COc1ccc2c(c1F)C(=O)N(C[C@@]1(c3cc4nc(C5(C)NC(=O)NC5=O)ccc4o3)NC(=O)NC1=O)C2 (mixture of isomers) [Compound 1901]	9.31	–	–	AUC ([2]; plasma 0.5-6 h): 1.07 µM·h; pIC50 [3, 5]: 7.00
